Test system: murine fibrosarcomas (RIF-1 cells)
Test: Chemopotentiation of cisplatin by menadione: tumor growth delay of RIF-1 fibrosarcomas in C3H mice
Type: in vivo
Conditions: for Median (TVQT) / TVQT ± S.E. (mean tumor volume quadrupling time) / TVQT/CTVQT (ratio of treated over untreated control): intradermal RIF-1 tumors, female C3H mice; for Median (TVQT) / TVQT ± S.E. (mean tumor volume quadrupling time) / TVQT/CTVQT (ratio of treated over untreated control) / Delay: i.p., menadione 10 mg/kg, cisplatin 4 mg/kg, combination: menadione 30 min before cisplatin; for Delay: median treated minus median control, RIF-1 tumors, C3H mice
Method: Transplantable experimental murine fibrosarcomas (2×10^5 RIF-1 cells) were grown intradermally in the flanks of 3 month old female C3H mice (Charles River, Holister, Calif.). When the tumors reached a volume of approximately 100 mm^3, the mice were randomly assigned to each experimental group (4 mice per group). The experimental compositions were prepared as described in Table 1. Menadione was obtained from Sigma Chemical Co. (St. Louis, Mo.) and was made to the appropriate concentration in DMSO. Cisplatin (David Bull Laboratories- Mulgrave, Australia, lot. 5201844x) was made to the appropriate concentration in water for injection. The compositions were injected systemically (i.e., intraperitoneally, i.p.), in a volume of 100 microliters. For the treatment of group 3, menadione was injected 30 minutes prior to the injection of cisplatin. After treatment, the growth of the tumors was monitored three times per week by caliper measurements of three perpendicular diameters of the tumor and calculation of tumor volume from the formula: V=π/6×D1×D2×D3, where D1-3 are the diameters in mm along the three different perpendicular axes. The tumors were followed until they reached a size of four times their day zero treatment volume (TVQT), or up to 30 days after treatment, whichever came first. The data is expressed as the “tumor volume quadrupling time” (TVQT) mean and as the “delay.” Mean TVQT is the mean days required for individual tumors to grow to four times the tumor volume at the initial treatment day. The “delay” is the median of days required for a tumor to grow to four times the mean size of the treated group, minus the median of days required to grow to four times the mean size of the control group. The data is also expressed as the ratio of the tumor volume quadrupling time of the treated tumor over the untreated control group ([…]). Increasing values of this ratio indicate increased antitumor response.

SMILES	antiproliferative activity of cisplatin when used with the chemopotentiator menadione (group 3 (menadione 10 mg/kg then cisplatin 4 mg/kg) versus either agent alone, more than additive effect)	Median (TVQT)	TVQT ± S.E. (mean tumor volume quadrupling time)	TVQT/CTVQT (ratio of treated over untreated control)	Delay
N.N.[Cl][Pt][Cl] [Cisplatin, cis-diamminedichloroplatinum II]	enhanced	8.3 days	8.4 ± 0.3 days	1.3	1.44 days
CC1=CC(=O)c2ccccc2C1=O [Menadione, 2-Methyl-1,4-Naphthoquinone]	–	7.5 days	7.0 ± 0.5 days	1.0	0.61 days
